Data as given in patent US7893220B2, “Busulfan immunoassay” (Saladax Biomedical Inc., priority 2004, dated 2011).

Key:
[1] = test system: busulfan antibodies (antisera of example 7); assay: Indirect competitive microtiter plate immunoassay (ELISA), busulfan derivative 7-BSA sensitized plates; format: binding, mouse; conditions: antibodies to Busulfan-KLH (example 7); plate coating Busulfan-BSA conjugate example 5, derivative 7; ratio of IC50 busulfan to IC50 analyte
Description: (§1) Ten Female BALB/c mice were immunized i.p. with 100 μg/mouse of Busulfan-BTG immunogen prepared in example 3 or with Busulfan-KLH immunogen prepared in example 4, emulsified in Complete Freund's Adjuvant. Mice were boosted once four weeks after the initial injection with 100 μg/mouse of the same immunogens emulsified in Incomplete Freund's Adjuvant. Ten or 28 days after the boost test bleeds from each mouse were obtained by orbital bleed. The anti-serum from these test bleeds contained Busulfan antibodies evaluated in Examples 9 , 10a and 10b.
The ELISA method for measuring busulfan concentrations was performed in polystyrene microtiter plates (Nunc MaxiSorp C8 or F8 Immunomodules) optimized for protein binding and containing 96 wells per plate. Each well was coated with busulfan-BSA conjugate (prepared as in example 5) by adding 300 μL of busulfan-BSA conjugate at 10 μg/mL in 0.05M sodium bicarbonate, pH=9.6, and incubating for three hours at room temperature. The wells were washed with 0.05M sodium bicarbonate, pH 9.6 and then were blocked with 400 μL of 5% sucrose, 0.2% sodium caseinate solution for 30 minutes at room temperature. After removal of the post-coat solution the plates were dried at 37° C. overnight.
(§2) The ELISA method for screening busulfan antibodies (produced in example 7) was performed with the microtiter plates that were sensitized with busulfan-BSA as described in examples 8a and 8b. The antibody screening assay was performed by diluting the antisera containing busulfan antibodies (of example 7) to 1:100, 1:1,000, 1:10,000 and 1:100,000 in phosphate buffered saline containing 0.1% BSA and 0.01% thimerosal. To each well of busulfan-BSA sensitized wells (prepared in examples 8a and 8b) 100 μL of diluted antibody was added and incubated for 10 minutes at room temperature with shaking. During this incubation antibody binds to the busulfan-conjugate in the well. The wells of the plates were washed three times with 0.02 M TRIS, 0.9% NaCl, 0.5% Tween-80 and 0.001% Thimerosal, pH 7.8 to remove any unbound antibody. […] Following the incubation for color development, 50 μL of stop solution (1.5% sodium fluoride in di H2O) was added to each well to stop the color development and after 10 seconds of shaking the absorbance was determined at 650 nm (Molecular Devices Plate Reader). The amount of antibody in a well was proportional to the absorbance measured and was expressed as the dilution (titer) resulting in an absorbance of 1.5. Titers were determined by graphing Log antibody dilution of the antibody measured (x-axis) vs. absorbance 650 nm (y-axis) and extrapolating the titer at an absorbance of 1.5. The titer determined the concentration (dilution) of antibody used in the indirect competitive Microtiter plate assay described in examples 10a and 10b. […]

[2] = test system: busulfan antibodies (antisera of example 7); assay: Indirect competitive microtiter plate immunoassay (ELISA), busulfan derivative 11-BSA sensitized plates; format: binding, mouse; conditions: antibodies to Busulfan-KLH (example 7); plate coating Busulfan-BSA conjugate example 6, derivative 11; ratio of IC50 busulfan to IC50 analyte
Description: as §1
The ELISA method for measuring busulfan concentrations was performed in polystyrene microtiter plates (Nunc MaxiSorp C8 or F8 Immunomodules) optimized for protein binding and containing 96 wells per plate. Each well was coated with busulfan-BSA conjugate (prepared as in example 6) by adding 300 μL of busulfan-BSA conjugate at 2.5 μg/mL in 7.5 μg/mL BSA, 0.05M sodium bicarbonate, pH=9.6, and incubating for three hours at room temperature. The wells were washed with 0.05M sodium bicarbonate, pH 9.6 and then were blocked with 400 μL of 5% sucrose, 0.2% sodium caseinate solution for 30 minutes at room temperature. After removal of the post-coat solution the plates were dried at 37° C. overnight.
as §2, with “well.” for “well. The wells of the plates were washed three times with 0.02 M TRIS, 0.9% NaCl, 0.5% Tween-80 and 0.001% Thimerosal, pH 7.8 to remove any unbound antibody.”

| Structure (SMILES) | Cross-Reactivity of Competitive Immunoassay [1] [%] | Cross-Reactivity of Competitive Immunoassay [2] [%] |
| --- | --- | --- |
| O=S1(=O)CCC(O)C1 (centres unmarked) [Tetrahydrothiophene-3-ol-1,1-dioxide, tetrahydrothiophene-3-ol-1,1-dioxide] | <0.4 | <0.24 |
| O=S1(=O)CCCC1 [Tetramethylene sulfone, tetramethylene sulfone] | <0.4 | <0.24 |
| C1CCSC1 [Tetrahydrothiophene, tetrahydrothiophene] | <0.4 | <0.24 |
| CS(=O)(=O)OCCCCOS(C)(=O)=O [Busulfan] | 100 | 100 |
